# Measurements reported in paper PMC5344539, “Nematode neuropeptides as transgenic nematicides” (PLoS Pathogens, 2017).
# “Also recorded” adds a separate entry of the source.
# Assays:
# [1] = test system: G. pallida J2s; assay: Chemosensory (chemotaxis) assay of uNLP pre-treated J2s towards tomato root exudate; assay type: in vivo, Globodera pallida
# Description: (§1) Predicted uNLPs from both M. incognita and G. pallida were synthesised by EZBiolab and dissolved into pH adjusted ddH2O to make a 5 mM stock which was aliquoted and stored at -20°C. J2s of both M. incognita and G. pallida were incubated for 24 hours in 200 μl of each peptide in a 24 well plate (SPL Lifesciences, South Korea) at a defined concentration.
# (§2) A 60 mm Petri dish was divided into two segments, a positive and a negative side, with a 0.5 cm 'dead zone' either side of the centre point. The petri dish was filled with 15 ml of 0.25% w/v agar which was allowed to solidify. 3 ml of 0.25% w/v agar slurry in spring water (pH 7, agitated with a magnetic stirrer for several hours to give a smooth consistency) was added to the petri dish and spread evenly over the surface. Root diffusate (attractant) and water only (control) 0.25% agar plugs were embedded in the agar slurry, either side of the assay arena. Root diffusate was collected from 10 tomato plants, aged 3–6 weeks in 1 litre pots, by pouring 500 ml of ddH20 through the soil three times. Diffusate from each plant was combined, filter sterilised and stored at 4°C for a maximum of 1 month. Root diffusate agar plugs were made by melting 1.25% agar in ddH20, cooling to 50°C before mixing with 4 parts of root diffusate. The agar was then allowed to solidify at room temperature. 100 uNLP pre-treated M. incognita or G. pallida J2s were added by pipette to the centre of the plate. J2s which moved out of the 'dead zone' after 3 hours were counted and their location (+/-) scored. The distribution of J2s were used to create a chemotaxis index for each plate, which formed one replicate, a total of 10 replicates where completed for each uNLP treatment.
# [2] = test system: M. incognita J2s; assay: Tomato invasion assay with uNLP pre-treated J2s; assay type: in vivo, Meloidogyne incognita; conditions: for % Invasion: mean
# Description: as §1
# Tomato seeds were sterilised with 2.5% NaOCl for 15 minutes, washed 5 times in ddH20 and germinated on 0.5% Murashige and Skoog plates at 23°C. […] Invasion assays were performed by mixing 500 pre-treated M. incognita or G. pallida J2s with agar slurry and a single tomato seedling (2 days post germination) in a 6 well plate. Assays were left at 23°C for 24 hours in the case of M. incognita and at 18°C for 24 hours in the case of G. pallida under a 16 hour light and 8 hour darkness cycle. Seedlings were stained using acid fuschin [69] and the number of nematodes within the roots counted. At least five seedlings were used for M. incognita infections assays, with at least 15 seedlings used for G. pallida infections assays (due to increased variation).
# [3] = test system: M. incognita J2s; assay: Serotonin-induced stylet thrusting assay; assay type: in vivo, Meloidogyne incognita; conditions: Fig 1C; J2s incubated in 100 μM uNLP for 24 h; stylet thrusts in 5 mM serotonin, counted 1 min; normalised to control = 100%; mean, at least 30 J2s
# Description: as §1
# Stylet thrusting assays where performed by incubating 100 M. incognita or G. pallida J2s for 15 minute in 5 mM or 2 mM serotonin (Sigma Aldrich, USA), respectively. J2s were placed on a glass slide and stylet thrusts were counted for randomly selected J2s, for 1 minute each. Counts for a given cohort of J2s were taken in a maximum interval of 15 minutes. Longer counting intervals, making for longer serotonin incubations, yielded inconsistent results. At least 30 J2s were counted for each neuropeptide treatment.
# [4] = test system: mixed-stage C. elegans; assay: C. elegans chemotaxis assay (non-target); assay type: in vivo, Caenorhabditis elegans; conditions: worms soaked in 100 μM uNLP 24 h, counted after 1 h, 8 replicates
# Description: C. elegans wild-type N2 Bristol strain were obtained from the C. elegans Genomics Center and maintained on a Escherichia coli (strain OP50) lawn on nematode growth medium (NGM) agar plates (3 g/l NaCl, 17 g/l agar, 2.5 g/l peptone, 5 mg/l cholesterol, 25 mM KH2PO4 (pH 6.0), 1 mM CaCl2, 1 mM MgSO4) at 20°C [70]. Chemotaxis assays were performed in a 9 cm diameter Petri dish on NGM agar which was split into a positive and negative side with a central ‘dead zone’ of 1.5 cm diameter. 100 mixed-staged C. elegans were washed three times in M9 buffer and soaked in 100 μM PPN uNLP, or M9 vehicle control for 24 hours. 2 μl of 50 mM sodium acetate, 0.5% pyrazine, 0.5% benzaldehyde or 0.5% diacetyl was spotted onto the positive side, 2 μl of ddH20 was spotted onto the negative side. Pyrazine, benzaldehyde and diacetyl volatile attractants were assayed immediately whereas the water soluble sodium acetate was assayed 18 hours following addition to the plate. Assays were maintained in the dark at 20°C, and counted after 1 hour. Eight replicates were conducted for each C. elegans attraction assay.
# [5] = test system: M. incognita J2s; assay: Chemosensory (chemotaxis) assay of uNLP pre-treated J2s towards tomato root exudate; assay type: in vivo, Meloidogyne incognita
# Description: as §1, §2
# [6] = 100 μM uNLP, 24 h, relative to controls
sequence,measurement,setting,value
"SFDSFTGPGFTGLD [Mi-NLP-15b, predicted unamidated NLP perfectly conserved between M. incognita and G. pallida; synthesised, also secreted from transgenic microbes]",effect on chemosensation (in words),[1]; [6],inhibits G. pallida chemotaxis
same,CI score,"[1]; Fig 2A, J2s incubated in 100 μM uNLP for 24 h, tomato cv. Moneymaker root exudate vs water agar plugs, counted after 3 h, mean of 10 replicates of 100 J2s, control 0.4154",-0.04762
same,effect on host invasion (in words),"[2]; 100 μM uNLP, 24 h, tomato cv. Moneymaker, relative to controls",inhibited
same,% Invasion,"[2]; Fig 1B, 500 J2s incubated in 100 μM uNLP for 24 h, single tomato seedling, 24 h at 23°C, normalised to negative control = 100%",32.22%
same,% Invasion,"[2]; Fig 3B, 100 nM peptide, 24 h, control = 100%",69.90%
same,% Invasion,"[2]; Fig 3B, 1 µM peptide, 24 h, control = 100%",59.05%
same,% Invasion,"[2]; Fig 3B, 10 µM peptide, 24 h, control = 100%",54.62%
same,% Invasion,"[2]; Fig 3B, 100 µM peptide, 24 h, control = 100%",35.06%
same,% Thrusting,[3],129.90%
same,CI score,"[4]; Fig 5A, attractant sodium acetate (50 mM), control 0.4269",0.3142
same,CI score,"[4]; Fig 5B, attractant pyrazine (0.5%), control 0.4904",0.4959
same,CI score,"[4]; Fig 5C, attractant benzaldehyde (0.5%), control 0.7026",0.7032
same,CI score,"[4]; Fig 5D, attractant diacetyl (0.5%), control 0.6638",0.664
same,effect on chemosensation (in words),[5]; [6],inhibit chemosensation; also recorded: inhibited
same,CI score,"[5]; Fig 1A, J2s incubated in 100 μM uNLP for 24 h, tomato cv. Moneymaker root exudate vs water agar plugs, counted after 3 h, mean of 10 replicates of 100 J2s, control 0.4426",-0.3408
same,CI score,"[5]; Fig 3A, 100 pM peptide, 24 h, control 0.4133, mean",0.03117
same,CI score,"[5]; Fig 3A, 1 nM peptide, 24 h, control 0.4133, mean",-0.07105
same,CI score,"[5]; Fig 3A, 10 nM peptide, 24 h, control 0.4133, mean",-0.1741
same,CI score,"[5]; Fig 3A, 100 nM peptide, 24 h, control 0.4133, mean",-0.1195
same,CI score,"[5]; Fig 3A, 1 µM peptide, 24 h, control 0.4133, mean",-0.1344
same,CI score,"[5]; Fig 3A, 10 µM peptide, 24 h, control 0.4133, mean",-0.03579
same,CI score,"[5]; Fig 3A, 100 µM peptide, 24 h, control 0.4133, mean",-0.3782
same,CI score,"[5]; Fig 3A, concentration printed as 22:00:00, 24 h, control 0.4133, mean",-0.1553
same,lowest concentration inhibiting chemosensation,"[5]; serial dilution, 24 h exposure (Fig 3)",≤ 10 pM
